System: MV-4-11 cells
Assay: Gene expression microarray analysis (Affymetrix PrimeView) and GSEA
Type: cell-based, human
Parameters: RFU PODN (11730768_x_at) / Fold change /veh PODN (11730768_x_at) / RFU LINC00158 (11744669_a_at) / Fold change /veh LINC00158 (11744669_a_at) / RFU DUSP10 (11751237_a_at) / Fold change /veh DUSP10 (11751237_a_at) / RFU ID3 (11757404_x_at) / Fold change /veh ID3 (11757404_x_at) / RFU PLEKHG5 (11737974_s_at) / Fold change /veh PLEKHG5 (11737974_s_at) / RFU LRRC4B (11730491_at) / Fold change /veh LRRC4B (11730491_at) / RFU GIMAP4 (11747438_a_at) / Fold change /veh GIMAP4 (11747438_a_at) / RFU KRT8 (11758183_x_at) / Fold change /veh KRT8 (11758183_x_at) / RFU CNN1 (11734310_a_at) / Fold change /veh CNN1 (11734310_a_at) / RFU VPS37D (11726825_at) / Fold change /veh VPS37D (11726825_at) / RFU C10orf10 (11716522_x_at) / Fold change /veh C10orf10 (11716522_x_at) / RFU KIR2DL2 /// KIR2DL4 /// KIR2DL5A /// KIR2DL5B /// KIR2DS1 /// KIR2DS2 /// KIR2DS3 /// KIR2DS4 /// KIR3DL3 /// KIR3DL3 /// KIR3DS1 (11738374_at) / Fold change /veh KIR2DL2 /// KIR2DL4 /// KIR2DL5A /// KIR2DL5B /// KIR2DS1 /// KIR2DS2 /// KIR2DS3 /// KIR2DS4 /// KIR3DL3 /// KIR3DL3 /// KIR3DS1 (11738374_at) / RFU C1QL1 (11718748_at) / Fold change /veh C1QL1 (11718748_at) / RFU TMPRSS4 (11747572_a_at) / Fold change /veh TMPRSS4 (11747572_a_at) / RFU HAMP (11756126_x_at) / Fold change /veh HAMP (11756126_x_at) / RFU RNFT2 (11725882_a_at) / Fold change /veh RNFT2 (11725882_a_at) / RFU NR4A2 (11747474_a_at) / Fold change /veh NR4A2 (11747474_a_at) / RFU ABCC12 (11746883_a_at) / Fold change /veh ABCC12 (11746883_a_at) / RFU TMEM136 (11760407_x_at) / Fold change /veh TMEM136 (11760407_x_at) / RFU CLDN22 /// WWC2 (11732394_at) / Fold change /veh CLDN22 /// WWC2 (11732394_at) / RFU HLA-DPB1 (11760878_x_at) / Fold change /veh HLA-DPB1 (11760878_x_at) / RFU SPINT1 (11716480_a_at) / Fold change /veh SPINT1 (11716480_a_at) / RFU GAP43 (11754022_s_at) / Fold change /veh GAP43 (11754022_s_at) / RFU A4GNT (11735810_at) / Fold change /veh A4GNT (11735810_at) / RFU PRB3 (11715151_x_at) / Fold change /veh PRB3 (11715151_x_at) / RFU TUBB4B (11761932_at) / Fold change /veh TUBB4B (11761932_at) / RFU CAPN14 (11732068_a_at) / Fold change /veh CAPN14 (11732068_a_at) / RFU TMCC2 (11721928_a_at) / Fold change /veh TMCC2 (11721928_a_at) / RFU IRGQ (11745062_a_at) / Fold change /veh IRGQ (11745062_a_at) / RFU FAM174B (11720279_a_at) / Fold change /veh FAM174B (11720279_a_at) / RFU TMPRSS4 (11748680_a_at) / Fold change /veh TMPRSS4 (11748680_a_at) / RFU FAM212B (11763350_a_at) / Fold change /veh FAM212B (11763350_a_at) / RFU PLEKHG5 (11743358_a_at) / Fold change /veh PLEKHG5 (11743358_a_at) / RFU ZSCAN30 (11745921_a_at) / Fold change /veh ZSCAN30 (11745921_a_at) / RFU CMKLR1 (11741424_a_at) / Fold change /veh CMKLR1 (11741424_a_at) / RFU LOC101060620 /// MAPK8IP1 (11723275_at) / Fold change /veh LOC101060620 /// MAPK8IP1 (11723275_at) / RFU SPTSSB (11747773_x_at) / Fold change /veh SPTSSB (11747773_x_at) / RFU PRSS12 (11739890_at) / Fold change /veh PRSS12 (11739890_at) / RFU BIN1 (11741810_x_at) / Fold change /veh BIN1 (11741810_x_at) / RFU WNT11 (11732464_a_at) / Fold change /veh WNT11 (11732464_a_at) / RFU C10orf10 (11716521_a_at) / Fold change /veh C10orf10 (11716521_a_at) / RFU C5orf56 (11738089_at) / Fold change /veh C5orf56 (11738089_at) / RFU CYB561 (11721691_x_at) / Fold change /veh CYB561 (11721691_x_at) / RFU ANKRD19P (11752326_a_at) / Fold change /veh ANKRD19P (11752326_a_at) / RFU OR2T12 /// OR2T33 /// OR2T8 (11738714_s_at) / Fold change /veh OR2T12 /// OR2T33 /// OR2T8 (11738714_s_at) / RFU VCAN (11748164_a_at) / Fold change /veh VCAN (11748164_a_at) / RFU JSRP1 (11732532_at) / Fold change /veh JSRP1 (11732532_at) / RFU KRTAP10-11 (11738290_x_at) / Fold change /veh KRTAP10-11 (11738290_x_at) / RFU MYO3A (11730013_a_at) / Fold change /veh MYO3A (11730013_a_at) / RFU EBF3 (11725865_a_at) / Fold change /veh EBF3 (11725865_a_at) / RFU CAMK2N1 (11719241_x_at) / Fold change /veh CAMK2N1 (11719241_x_at) / RFU C5orf56 (11738088_a_at) / Fold change /veh C5orf56 (11738088_a_at) / RFU OLFML3 (11715873_a_at) / Fold change /veh OLFML3 (11715873_a_at) / RFU LOC100653217 /// NTM (11731650_a_at) / Fold change /veh LOC100653217 /// NTM (11731650_a_at) / RFU MAPK11 (11762145_a_at) / Fold change /veh MAPK11 (11762145_a_at) / RFU FIZ1 (11724087_x_at) / Fold change /veh FIZ1 (11724087_x_at) / RFU OASL (11726364_x_at) / Fold change /veh OASL (11726364_x_at) / RFU SOX15 (11748057_x_at) / Fold change /veh SOX15 (11748057_x_at) / RFU CD79A (11719716_a_at) / Fold change /veh CD79A (11719716_a_at) / RFU HIST1H1D (11736915_at) / Fold change /veh HIST1H1D (11736915_at) / RFU CASKIN2 (11723855_a_at) / Fold change /veh CASKIN2 (11723855_a_at) / RFU LOC730098 (11760151_x_at) / Fold change /veh LOC730098 (11760151_x_at) / RFU OR4N2 (11742367_at) / Fold change /veh OR4N2 (11742367_at) / RFU PRRT2 (11749266_a_at) / Fold change /veh PRRT2 (11749266_a_at) / RFU SNX32 (11753110_a_at) / Fold change /veh SNX32 (11753110_a_at) / RFU CDHR5 (11726645_a_at) / Fold change /veh CDHR5 (11726645_a_at) / RFU RCAN1 (11760418_a_at) / Fold change /veh RCAN1 (11760418_a_at) / RFU FAM167A (11723789_a_at) / Fold change /veh FAM167A (11723789_a_at) / RFU FAM26E (11764081_at) / Fold change /veh FAM26E (11764081_at) / RFU ISYNA1 (11749810_s_at) / Fold change /veh ISYNA1 (11749810_s_at) / RFU ACY1 (11761880_at) / Fold change /veh ACY1 (11761880_at) / RFU 11764098_at / Fold change /veh 11764098_at / RFU SAMD14 (11745864_x_at) / Fold change /veh SAMD14 (11745864_x_at) / RFU NPB (11741838_a_at) / Fold change /veh NPB (11741838_a_at) / RFU TMPRSS6 (11731388_a_at) / Fold change /veh TMPRSS6 (11731388_a_at) / RFU KRTAP10-2 (11738614_at) / Fold change /veh KRTAP10-2 (11738614_at) / RFU ARHGAP8 /// PRR5-ARHGAP8 (11727945_x_at) / Fold change /veh ARHGAP8 /// PRR5-ARHGAP8 (11727945_x_at) / RFU KRTAP5-7 /// NADSYN1 (11734609_at) / Fold change /veh KRTAP5-7 /// NADSYN1 (11734609_at) / RFU RASL12 (11751679_a_at) / Fold change /veh RASL12 (11751679_a_at) / RFU CDKN2B (11736163_a_at) / Fold change /veh CDKN2B (11736163_a_at) / RFU PRF1 (11729649_at) / Fold change /veh PRF1 (11729649_at) / RFU, ZNF638 /// ZNF638-IT1 / Fold change vs veh, ZNF638 /// ZNF638-IT1 / RFU, PANK3 / Fold change vs veh, PANK3 / RFU, SH3YL1 / Fold change vs veh, SH3YL1 / RFU, ZEB2 / Fold change vs veh, ZEB2 / RFU, NRIP1 / Fold change vs veh, NRIP1 / RFU, PTTG1IP / Fold change vs veh, PTTG1IP / RFU, CAPN2 / Fold change vs veh, CAPN2 / RFU, MED14 / Fold change vs veh, MED14 / RFU, SNORA58 / Fold change vs veh, SNORA58 / RFU, C1orf63 / Fold change vs veh, C1orf63 / RFU, LRRFIP1 / Fold change vs veh, LRRFIP1 / RFU, NDUFAF7 / Fold change vs veh, NDUFAF7 / RFU, SLC12A2 / Fold change vs veh, SLC12A2 / RFU, IBTK / Fold change vs veh, IBTK / RFU, ESF1 / Fold change vs veh, ESF1 / Fold change vs veh, TMEM50B / RFU, TAOK1 / Fold change vs veh, TAOK1 / RFU, ACBD3 / Fold change vs veh, ACBD3 / RFU, TMA16 / Fold change vs veh, TMA16 / RFU, RWDD3 / Fold change vs veh, RWDD3 / RFU, BCAT1 / Fold change vs veh, BCAT1 / RFU, EDEM3 / Fold change vs veh, EDEM3 / RFU, TMEM33 / Fold change vs veh, TMEM33 / RFU, WDR75 / Fold change vs veh, WDR75 / RFU, AHCTF1 / Fold change vs veh, AHCTF1 / RFU, TFRC / Fold change vs veh, TFRC / RFU, ZDHHC17 / Fold change vs veh, ZDHHC17 / RFU, NOM1 / Fold change vs veh, NOM1 / RFU, ARL8B / Fold change vs veh, ARL8B / RFU, ZBTB11 / Fold change vs veh, ZBTB11 / RFU, TAMM41 / Fold change vs veh, TAMM41 / RFU, KIAA1704 /// LOC100996395 / Fold change vs veh, KIAA1704 /// LOC100996395 / RFU, ING1 / Fold change vs veh, ING1 / RFU, TRMT61B / Fold change vs veh, TRMT61B / RFU, FUBP3 / Fold change vs veh, FUBP3 / RFU, TP53 / Fold change vs veh, TP53 / RFU, TNKS2 / Fold change vs veh, TNKS2 / RFU, ZFP14 / Fold change vs veh, ZFP14 / RFU, ACTR2 / Fold change vs veh, ACTR2 / RFU, PPP3R1 / Fold change vs veh, PPP3R1 / RFU, PIK3R1 / Fold change vs veh, PIK3R1 / RFU, HNRNPA1 / Fold change vs veh, HNRNPA1 / RFU, RNF170 / Fold change vs veh, RNF170 / RFU, ZNF28 / Fold change vs veh, ZNF28 / RFU, RNGTT / Fold change vs veh, RNGTT / RFU, OGT / Fold change vs veh, OGT / RFU, BRD1 / Fold change vs veh, BRD1 / RFU, MARS / Fold change vs veh, MARS / RFU, ZNF655 / Fold change vs veh, ZNF655 / RFU, FAHD1 / Fold change vs veh, FAHD1 / RFU, BDP1 / Fold change vs veh, BDP1 / RFU, LRRCC1 / Fold change vs veh, LRRCC1 / RFU, ARID1A / Fold change vs veh, ARID1A / RFU, ZNF146 / Fold change vs veh, ZNF146 / RFU, ZNF330 / Fold change vs veh, ZNF330 / RFU, GPN3 / Fold change vs veh, GPN3 / RFU, C9orf123 / Fold change vs veh, C9orf123 / RFU, N4BP2L2 / Fold change vs veh, N4BP2L2 / RFU, ARFIP1 / Fold change vs veh, ARFIP1 / RFU, FAM179B / Fold change vs veh, FAM179B / RFU, BCL10 / Fold change vs veh, BCL10 / RFU, UHRF1BP1L / Fold change vs veh, UHRF1BP1L / RFU, BET1 / Fold change vs veh, BET1 / RFU, CNOT2 / Fold change vs veh, CNOT2 / RFU, ZNF268 / Fold change vs veh, ZNF268 / Fold change vs veh, ZNF507 / RFU, DGCR2 / Fold change vs veh, DGCR2 / RFU, WDSUB1 / Fold change vs veh, WDSUB1 / Fold change vs veh, HSP90B1 /// MIR3652 / RFU, ADSS / Fold change vs veh, ADSS / RFU, GK / Fold change vs veh, GK / RFU, ZNF148 / Fold change vs veh, ZNF148 / RFU, TAF9 / Fold change vs veh, TAF9 / RFU, SLC1A5 / Fold change vs veh, SLC1A5 / RFU, SLMO2 / Fold change vs veh, SLMO2 / RFU, ABCC4 / Fold change vs veh, ABCC4 / RFU, LOC101060439 /// RAP1B / Fold change vs veh, LOC101060439 /// RAP1B / RFU, RFX7 / Fold change vs veh, RFX7 / RFU, GTPBP10 / Fold change vs veh, GTPBP10 / RFU, CNEP1R1 / Fold change vs veh, CNEP1R1 / RFU, BIVM-ERCC5 /// ERCC5 / Fold change vs veh, BIVM-ERCC5 /// ERCC5 / RFU, ILF3 / Fold change vs veh, ILF3 / RFU 11762660_at / Fold change /veh 11762660_at / RFU VCAN (11757783_s_at) / Fold change /veh VCAN (11757783_s_at) / RFU DDX43 (11728927_at) / Fold change /veh DDX43 (11728927_at) / RFU KRT8 (11758188_x_at) / Fold change /veh KRT8 (11758188_x_at) / RFU NKD1 (11759106_at) / Fold change /veh NKD1 (11759106_at) / RFU SRD5A1 (11742802_a_at) / Fold change /veh SRD5A1 (11742802_a_at) / RFU TPSAB1 /// TPSB2 (11721975_s_at) / Fold change /veh TPSAB1 /// TPSB2 (11721975_s_at) / RFU GSTM3 (11746129_a_at) / Fold change /veh GSTM3 (11746129_a_at) / RFU IL23R (11737362_x_at) / Fold change /veh IL23R (11737362_x_at) / RFU TMEM51 (11727254_a_at) / Fold change /veh TMEM51 (11727254_a_at) / RFU PIWIL2 (11732686_x_at) / Fold change /veh PIWIL2 (11732686_x_at) / RFU ORM1 (11744905_x_at) / Fold change /veh ORM1 (11744905_x_at) / RFU CCDC152 (11743942_at) / Fold change /veh CCDC152 (11743942_at) / RFU ECM1 (11717891_a_at) / Fold change /veh ECM1 (11717891_a_at) / RFU IL23R (11748794_a_at) / Fold change /veh IL23R (11748794_a_at) / RFU TNFAIP8L3 (11732012_x_at) / Fold change /veh TNFAIP8L3 (11732012_x_at) / RFU MBOAT4 (11741988_at) / Fold change /veh MBOAT4 (11741988_at) / RFU 11764193_at / Fold change /veh 11764193_at / RFU TMEM53 (11763286_at) / Fold change /veh TMEM53 (11763286_at) / RFU MAGEB2 (11727129_at) / Fold change /veh MAGEB2 (11727129_at) / RFU TMEM200A (11744735_a_at) / Fold change /veh TMEM200A (11744735_a_at) / RFU CCDC152 (11751479_a_at) / Fold change /veh CCDC152 (11751479_a_at) / RFU FAM211A (11726209_a_at) / Fold change /veh FAM211A (11726209_a_at) / RFU RGS16 (11746705_a_at) / Fold change /veh RGS16 (11746705_a_at) / RFU VCAN (11755009_s_at) / Fold change /veh VCAN (11755009_s_at) / RFU RHOB (11743442_s_at) / Fold change /veh RHOB (11743442_s_at) / RFU RGS16 (11720943_a_at) / Fold change /veh RGS16 (11720943_a_at) / RFU RGS16 (11720944_at) / Fold change /veh RGS16 (11720944_at) / RFU, VPS4B / Fold change vs veh, VPS4B / RFU, CREB1 / Fold change vs veh, CREB1 / RFU, DNAJC13 / Fold change vs veh, DNAJC13 / RFU, GNAQ / Fold change vs veh, GNAQ / RFU, CDK5R1 / Fold change vs veh, CDK5R1 / RFU, ZRANB3 / Fold change vs veh, ZRANB3 / RFU, CUL4A / Fold change vs veh, CUL4A / RFU, CCNY / Fold change vs veh, CCNY / RFU, UFL1 / Fold change vs veh, UFL1 / RFU, COG3 / Fold change vs veh, COG3 / RFU, DIAPH2 / Fold change vs veh, DIAPH2 / RFU, SKA2 / Fold change vs veh, SKA2 / RFU, AFF3 / Fold change vs veh, AFF3 / RFU, LMF1 / Fold change vs veh, LMF1 / RFU, IPO11 / Fold change vs veh, IPO11 / RFU, DFFB / Fold change vs veh, DFFB / RFU, FOXP1 / Fold change vs veh, FOXP1 / RFU, CARD8 / Fold change vs veh, CARD8 / RFU, STRN3 / Fold change vs veh, STRN3 / RFU, ADK / Fold change vs veh, ADK / RFU, RASSF2 / Fold change vs veh, RASSF2 / RFU, WIPF1 / Fold change vs veh, WIPF1 / RFU, LARP1B / Fold change vs veh, LARP1B / RFU, RASA1 / Fold change vs veh, RASA1 / RFU, RB1 / Fold change vs veh, RB1 / RFU, PPFIA1 / Fold change vs veh, PPFIA1 / RFU, MAT2A / Fold change vs veh, MAT2A / RFU, CCT5 / Fold change vs veh, CCT5 / RFU, WDR92 / Fold change vs veh, WDR92 / RFU, CUX1 / Fold change vs veh, CUX1 / RFU, TTC7A / Fold change vs veh, TTC7A / RFU, TMEM135 / Fold change vs veh, TMEM135 / RFU, DEPTOR / Fold change vs veh, DEPTOR / RFU, CPM / Fold change vs veh, CPM / RFU, DNAJB6 / Fold change vs veh, DNAJB6 / RFU, CACNA2D3 / Fold change vs veh, CACNA2D3 / RFU, DTX4 / Fold change vs veh, DTX4 / RFU, TFCP2 / Fold change vs veh, TFCP2 / RFU, GMCL1 /// GMCL1P1 / Fold change vs veh, GMCL1 /// GMCL1P1 / RFU, AEBP2 / Fold change vs veh, AEBP2 / RFU, SNHG1 /// SNORD22 /// SNORD25 /// SNORD26 /// SNORD27 /// SNORD28 /// SNORD29 /// SNORD31 / Fold change vs veh, SNHG1 /// SNORD22 /// SNORD25 /// SNORD26 /// SNORD27 /// SNORD28 /// SNORD29 /// SNORD31 / Fold change (Aza/veh), C12orf56 (ProbeSet 11735607_a_at) / Fold change (ACY-1035/veh), C12orf56 (ProbeSet 11735607_a_at) / Fold change (Aza/veh), FGFR1OP (ProbeSet 11751329_s_at) / Fold change (ACY-1035/veh), FGFR1OP (ProbeSet 11751329_s_at) / Fold change (Aza/veh), VPS36 (ProbeSet 11739960_a_at) / Fold change (ACY-1035/veh), VPS36 (ProbeSet 11739960_a_at) / RFU SYPL1 (11715823_x_at) / Fold change /veh SYPL1 (11715823_x_at) / RFU IGFBP7 (11715501_s_at) / Fold change /veh IGFBP7 (11715501_s_at) / RFU REEP3 (11722064_at) / Fold change /veh REEP3 (11722064_at) / RFU IGLL1 (11728026_x_at) / Fold change /veh IGLL1 (11728026_x_at): dose or concentration left out as unconfirmed
Details: ProbeSet 11749781_s_at; LIST B

Nc1ccc(-c2cccs2)cc1NC(=O)c1ccc2c(c1)cc(C1CC1)n2CCN1CCOCC1 [ACY-1035]
Fold change vs veh, BCAT1: 0.87

Source: article PMC5218480 (PLoS ONE, 2017)
